Data taken from patent EP0437336B1, “Biophosphoryl hydrazines and their use as pesticides” (priority 1990, dated 1991).
Converted amounts (≈) assume the structure as drawn. Where two headings read alike, the source gives them in different places.

Key:
Two-Spotted Spider Mite = test: Biological Method D: Foliar Insecticidal Activity Test, mite test; format: in vivo, Tetranychus urticae; set-up: key to LC50 TSM: I = inactive at concentration listed; settings: for LC50 TSM: Method D foliar test, Two-Spotted Spider Mite
Method: (§1) Biological Method D: Foliar Insecticidal Activity Test
(§2) In evaluating the foliar insecticidal activity of the compounds of this invention against insects and mites, the following test procedures were employed.
(§3) Not all compounds were tested at each of the several concentrations stated above. Test concentrations of a compound were selected as those most likely to differentiate dose response of a particular compound toward a particular test insect.
(§4) Initial evaluations were made on one or more of the following pests:
For the mite test, infested bean (Phaseolus limensis var. Woods Prolific) leaf discs [3.18 cm (1.25") in diameter] containing about 50 mites were placed in a Petri dish lid on a moistened piece of cotton. The leaves were then sprayed to thorough wetness with the test solution using a rotating turntable, held for twenty-four hours and then the percentage killed was determined.
(§5) The mortalities obtained in this manner were plotted on logarithmic probability paper.
(§6) The rotating turntable consists of a fixed, continuously operating spray nozzle under which targets are rotated at a fixed speed and distance. If the target is a Petri dish (such as for the bean beetle, armyworm, mite, or aphid tests), the distance from the nozzle is 38.1 cm (15 inches). If the target is a Mason jar (such as for the boll weevil test), the distance from the nozzle is 17.8 cm (7 inches). The nozzle is located 8 inches from the rotating shaft. The targets on individual platforms revolve around the shaft at 1 revolution per 20 seconds but only a brief portion of this time occurs in the spray path. Targets pass only once under the nozzle and then are removed to drying hoods.
(§7) The nozzle used is a 1/4 JCO Spraying Systems (Wheaton, Illinois) air atomizing nozzle equipped with a No. 2850 fluid cap and a No. 70 air cap. At the 68.95 x 10³ Pa gauge (10 psig) air pressure used and with liquid siphon feed, 1.89 ℓ/hr [0.5 GPH (gallons per hour)] are delivered in a round spray pattern with a 21 degree spray angle. Targets are misted with spray droplets to the point that the droplets coalesce to form a uniform thin film insufficient to drown test organisms.

Green Peach Aphid [1] = test: Biological Method D: Foliar Insecticidal Activity Test, aphid test; format: in vivo, Myzus persicae; set-up: key: I = inactive at concentration listed
Method: as §1, §2, §3, §4
(§8) For the aphid test, infested broccoli (Brassica oleracea italica var. DiCicco) leaves containing about 50 aphids were placed in a Petri dish lid on a moistened piece of cotton. The leaves were then sprayed to thorough wetness with the test solution using a rotating turntable, held for twenty-four hours and then the percentage killed was determined.
as §5, §6, §7

Southern Armyworm [2] = test: Biological Method D: Foliar Insecticidal Activity Test, Southern Armyworm test; format: in vivo, Spodoptera eridania; set-up: key: I = inactive at concentration listed
Method: as §1, §2, §3, §4
(§9) For the Mexican Bean Beetle and Southern armyworm tests, individual lima bean (Phaseolus limeniss var. Woods' Prolific) leaves were placed on moistened pieces of filter paper in Petri dishes. The leaves were then sprayed with the test solution using a rotating turntable and allowed to dry. The dishes were then infested with 10 third instar larvae of either the Mexican Been Beetle or the Southern Armyworm. The dishes were then covered. Percent mortality was determined for each species and spray concentration at 48 and 96 hours after treatment.
as §5, §6, §7

Boll Weevil [3] = test: Biological Method D: Foliar Insecticidal Activity Test, boll weevil test; format: in vivo, Anthonomous grandis; set-up: key: I = inactive at concentration listed
Method: as §1, §2, §3, §4
(§10) For the boll weevil test, 10 adult weevils were placed in a 0.24 ℓ (0.5 pint) glass Mason jar containing a small cube of apple. The weevils were confined to the jar by fiberglass screen mesh secured by a screw-type rim cap. The jars were then sprayed with the test solution using a rotating turntable; directing the spray through the mesh into the jar. The percentage killed was determined after forty-eight and ninety six hours.
as §5, §6, §7

Mexican Bean Beetle = test: Biological Method D: Foliar Insecticidal Activity Test, Mexican Bean Beetle test; format: in vivo, Epilachna varivestis; set-up: key to LC50 BB 96 hrs / LC50 BB 48 hrs.: I = inactive at concentration listed; settings: for LC50: Epilachna varivestis
Method: as §1, §2, §3, §4, §9, §5, §6, §7

[4] = test system: southern corn rootworm, Diabrotica undecimpunctata howardi; test: Biological Method A: Corn Rootworm Screening Test (treated non-aggressive soil); settings: soil concentration giving 90% mortality, 10 days at 27°C
Boll Weevil [5] = test: Biological Method D: Foliar Insecticidal Activity Test, boll weevil test; format: in vivo, Anthonomous grandis; settings: Method D foliar test, Boll Weevil
Method: as §1, §2, §3, §4, §10, §5, §6, §7

[6] = test system: southern corn rootworm, Diabrotica undecimpunctata howardi; settings: at-planting soil application
Southern Armyworm [7] = test: Biological Method D: Foliar Insecticidal Activity Test, Southern Armyworm test; format: in vivo, Spodoptera eridania; settings: for LC50: Spodoptera eridania, Method D foliar test, Southern Armyworm
Method: as §1, §2, §3, §4, §9, §5, §6, §7

Green Peach Aphid [8] = test: Biological Method D: Foliar Insecticidal Activity Test, aphid test; format: in vivo, Myzus persicae; settings: foliar spray; kill after twenty-four hours
Method: as §1, §2, §3, §4, §8, §5, §6, §7

[9] = Method D foliar test, Mexican Bean Beetle, 48 hrs, read-out: LC50 BB 48 hrs.
[10] = Method D foliar test, Mexican Bean Beetle, 96 hrs, read-out: LC50 BB 96 hrs
[11] = Method D foliar test, Mexican Bean Beetle, 48 hrs
[12] = 96 hrs, read-out: LC50 AW 96 hrs
[13] = Method D foliar test, Mexican Bean Beetle, 96 hrs
[14] = 48 hrs, read-out: LC50 AW 48 hrs

## CCCOP(=S)(NNP(=S)(OCC)SCC)OCCC (stereo not shown) [Compound 27]
Two-Spotted Spider Mite
  LC50 TSM: I
Green Peach Aphid [1]
  LC50 GPA: I
Southern Armyworm [2]
  LC50 AW 48 hrs: I
  LC50 AW 96 hrs: I
Boll Weevil [3]
  LC50 BW 48 hrs: I
Mexican Bean Beetle; [9]
  LC50: 150 µg/mL (≈ 394 µM)
Mexican Bean Beetle; [10]
  LC50: 150 µg/mL (≈ 394 µM)
[4]
  primary nonagressive Method A crw LC90: 5.8 ppm
Boll Weevil [5]
  LC50 BW 96 hrs: 740 ppm

## CCCOP(=S)(NNP(=S)(OCCC)OCCC)OCC (stereo not shown) [Compound 28]
Two-Spotted Spider Mite
  LC50 TSM: I
Green Peach Aphid [1]
  LC50 GPA: I
Southern Armyworm [2]
  LC50 AW 48 hrs: I
  LC50 AW 96 hrs: I
Boll Weevil [3]
  LC50 BW 48 hrs: I
  LC50 BW 96 hrs: I
[6]; rated 17 days post-infestation
  secondary aggressive Method C crw LC50: 1.06 kg/ha
[6]; value in brackets
  secondary aggressive Method C crw LC50: 0.95 lb/acre
Mexican Bean Beetle; [9]
  LC50: 62 µg/mL (≈ 164 µM)
Mexican Bean Beetle; [10]
  LC50: 50 µg/mL (≈ 132 µM)
[4]
  primary nonagressive Method A crw LC90: 1.1 ppm

## CCCOP(=S)(NNP(=S)(OCC)OCC)OCC(C)(C)C (stereo not shown) [Compound 34]
Two-Spotted Spider Mite
  LC50 TSM: I
Green Peach Aphid [1]
  LC50 GPA: I
Southern Armyworm [2]
  LC50 AW 48 hrs: I
  LC50 AW 96 hrs: I
Boll Weevil [3]
  LC50 BW 48 hrs: I
  LC50 BW 96 hrs: I
[6]; rated 17 days post-infestation
  secondary aggressive Method C crw LC50: 0.65 kg/ha
[6]; value in brackets
  secondary aggressive Method C crw LC50: 0.58 lb/acre
Mexican Bean Beetle; [10]
  LC50: 52 µg/mL (≈ 132 µM)
Mexican Bean Beetle; [11]
  LC50 BB 48 hrs.: I
[4]
  primary nonagressive Method A crw LC90: 1.1 ppm

## CCOP(=S)(NNP(=S)(OC)OC)OCC(C)(C)C (stereo not shown) [Compound 44]
Two-Spotted Spider Mite
  LC50 TSM: I
Green Peach Aphid [1]
  LC50 GPA: I
Southern Armyworm [2]
  LC50 AW 48 hrs: I
[6]; rated 17 days post-infestation
  secondary aggressive Method C crw LC50: 0.56 kg/ha
[6]; value in brackets
  secondary aggressive Method C crw LC50: 0.50 lb/acre
Southern Armyworm [7]; [12]
  LC50: 500 µg/mL (≈ 1430 µM)
Mexican Bean Beetle; [11]
  LC50 BB 48 hrs.: I
Mexican Bean Beetle; [13]
  LC50 BB 96 hrs: I
[4]
  primary nonagressive Method A crw LC90: 0.37 ppm
Boll Weevil [5]
  LC50 BW 48 hrs: 380 ppm
  LC50 BW 96 hrs: 380 ppm

## CCCOP(=S)(NNP(=S)(OCC)OCC(C)(C)C)OCC (stereo not shown) [Compound 45, N-(O-ethyl O-propylthiophosphoryl) N′-(O-ethyl O-neopentylthiophosphoryl) hydrazine]
Two-Spotted Spider Mite
  LC50 TSM: I
Green Peach Aphid [1]
  LC50 GPA: I
Southern Armyworm [2]
  LC50 AW 48 hrs: I
Boll Weevil [3]
  LC50 BW 48 hrs: I
[6]; rated 17 days post-infestation
  secondary aggressive Method C crw LC50: 0.37 kg/ha
[6]; value in brackets
  secondary aggressive Method C crw LC50: 0.33 lb/acre
Southern Armyworm [7]; [12]
  LC50: 150 µg/mL (≈ 382 µM)
Mexican Bean Beetle; [11]
  LC50 BB 48 hrs.: I
Mexican Bean Beetle; [13]
  LC50 BB 96 hrs: I
[4]
  primary nonagressive Method A crw LC90: 0.39 ppm
Boll Weevil [5]
  LC50 BW 96 hrs: 150 ppm

## CCOP(=S)(NNP(=S)(OCC)OC(C)CC)OCC(C)(C)C (stereo not shown) [Compound 47, N-(O-ethyl O-secbutylthiophosphoryl) N′-(O-ethyl O-neopentylthiophosphoryl) hydrazine]
Two-Spotted Spider Mite
  LC50 TSM: I
Green Peach Aphid [1]
  LC50 GPA: I
Southern Armyworm [2]
  LC50 AW 48 hrs: I
  LC50 AW 96 hrs: I
Boll Weevil [3]
  LC50 BW 48 hrs: I
  LC50 BW 96 hrs: I
[6]; rated 17 days post-infestation
  secondary aggressive Method C crw LC50: 0.38 kg/ha
[6]; value in brackets
  secondary aggressive Method C crw LC50: 0.34 lb/acre
Mexican Bean Beetle; [10]
  LC50: 45 µg/mL (≈ 111 µM)
Mexican Bean Beetle; [11]
  LC50 BB 48 hrs.: I
[4]
  primary nonagressive Method A crw LC90: 0.09 ppm

## CCOP(=S)(NNP(=S)(OCC)OC(C)(C(F)(F)F)C(F)(F)F)OCC(C)(C)C (stereo not shown) [Compound 48]
Two-Spotted Spider Mite
  LC50 TSM: I
Green Peach Aphid [1]
  LC50 GPA: I
Boll Weevil [3]
  LC50 BW 48 hrs: I
  LC50 BW 96 hrs: I
[6]; rated 17 days post-infestation
  secondary aggressive Method C crw LC50: 0.63 kg/ha
[6]; value in brackets
  secondary aggressive Method C crw LC50: 0.56 lb/acre
Southern Armyworm [7]; [14]
  LC50: 300 µg/mL (≈ 583 µM)
Southern Armyworm [7]; [12]
  LC50: 150 µg/mL (≈ 292 µM)
Mexican Bean Beetle; [11]
  LC50 BB 48 hrs.: I
Mexican Bean Beetle; [13]
  LC50 BB 96 hrs: I
[4]
  primary nonagressive Method A crw LC90: 0.40 ppm

## CCOP(=O)(NNP(=S)(OCC)OCC(C)(C)C)SC(C)CC (stereo not shown) [Compound 52]
Two-Spotted Spider Mite
  LC50 TSM: I
Green Peach Aphid [1]
  LC50 GPA: I
Southern Armyworm [2]
  LC50 AW 48 hrs: I
  LC50 AW 96 hrs: I
Boll Weevil [3]
  LC50 BW 48 hrs: I
  LC50 BW 96 hrs: I
[6]; rated 17 days post-infestation
  secondary aggressive Method C crw LC50: 0.78 kg/ha
[6]; value in brackets
  secondary aggressive Method C crw LC50: 0.70 lb/acre
Mexican Bean Beetle; [9]
  LC50: 500 µg/mL (≈ 1230 µM)
Mexican Bean Beetle; [10]
  LC50: 150 µg/mL (≈ 369 µM)
[4]
  primary nonagressive Method A crw LC90: 1.1 ppm

## CCCOP(=S)(NNP(=O)(OCC)SC(C)CC)OCC (stereo not shown) [Compound 54]
Two-Spotted Spider Mite
  LC50 TSM: I
Green Peach Aphid [1]
  LC50 GPA: I
Southern Armyworm [2]
  LC50 AW 96 hrs: I
Boll Weevil [3]
  LC50 BW 48 hrs: I
Southern Armyworm [7]; [14]
  LC50: 52 µg/mL (≈ 137 µM)
Mexican Bean Beetle; [11]
  LC50 BB 48 hrs.: I
Mexican Bean Beetle; [13]
  LC50 BB 96 hrs: I
[4]
  primary nonagressive Method A crw LC90: 1.1 ppm

## CCOP(=S)(NNP(=S)(OCC(C)(C)C)OCC(C)(C)C)OCC(C)(C)C (stereo not shown) [Compound 57, N-(O,O-dineopentylthiophosphoryl) N′-(O-ethyl O-neopentylthiophosphoryl) hydrazine]
Two-Spotted Spider Mite
  LC50 TSM: I
Green Peach Aphid [1]
  LC50 GPA: I
Southern Armyworm [2]
  LC50 AW 48 hrs: I
  LC50 AW 96 hrs: I
Boll Weevil [3]
  LC50 BW 48 hrs: I
  LC50 BW 96 hrs: I
[6]; rated 17 days post-infestation
  secondary aggressive Method C crw LC50: 0.5 kg/ha
[6]; value in brackets
  secondary aggressive Method C crw LC50: 0.45 lb/acre
Mexican Bean Beetle; [11]
  LC50 BB 48 hrs.: I
Mexican Bean Beetle; [13]
  LC50 BB 96 hrs: I
[4]
  primary nonagressive Method A crw LC90: 1.1 ppm

## CCOP(=S)(NNP1(=S)OCC(C)(C)CO1)OCC [Compound 61]
Two-Spotted Spider Mite
  LC50 TSM: I
Green Peach Aphid [1]
  LC50 GPA: I
Southern Armyworm [2]
  LC50 AW 48 hrs: I
Mexican Bean Beetle; [11]
  LC50 BB 48 hrs.: I
Mexican Bean Beetle; [13]
  LC50 BB 96 hrs: I
[4]
  primary nonagressive Method A crw LC90: 1.1 ppm
Boll Weevil [5]
  LC50 BW 48 hrs: 740 ppm
  LC50 BW 96 hrs: 740 ppm

## CCOP(=S)(NNP(=S)(OC(C)C)OC(C)C)OCC(C)C (stereo not shown) [Compound 83]
Two-Spotted Spider Mite; foliar spray, kill after twenty-four hours
  TSM LC50: I
Green Peach Aphid [8]
  GPA LC50: I
Southern Armyworm [7]; foliar spray, 48 hours after treatment
  AW 48 hrs LC50: I
Mexican Bean Beetle; foliar spray, 48 hours after treatment, read-out: BB 48 hrs. LC50
  LC50: 500 µg/mL (≈ 1270 µM)
Mexican Bean Beetle; foliar spray, 96 hours after treatment, read-out: BB 96 hrs LC50
  LC50: 62 µg/mL (≈ 158 µM)
